Measured values as given in patent US7728028B2, “Substituted imidazoline compounds” (Gruenenthal GmbH, priority 2005, dated 2010).
Where two headings read alike, the source gives them in different places.

Target: T1, human μ-opiate receptor (Homo sapiens, UniProt P35372)
T1 construct: purchased PerkinElmer Life Sciences, Zaventem, Belgium RB-HOM; host or cells: CHO-K1 cells (recombinant expression; membrane preparation)
Assay: Affinity for the human μ-opiate receptor ([3H]-naloxone displacement, SPA)
Details: test substance 1 μmole/l, inhibition of specific [3H]-naloxone binding, CHO-K1 membranes, read-out: μ-Opioid receptor, % inhibition [1 μM]
Procedure, shortened: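 CHO-K1 membranes expressing the receptor, incubated 90 min at room temperature with 1 nmol/l [3H]-naloxone and WGA-SPA beads in 50 mmol/l Tris-HCl with 0.06% BSA. Non-specific binding defined with 100 μmol/l naloxone. Value is % inhibition of specific binding at 1 μmol/l test substance.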

T1 sequence (P35372 whole entry): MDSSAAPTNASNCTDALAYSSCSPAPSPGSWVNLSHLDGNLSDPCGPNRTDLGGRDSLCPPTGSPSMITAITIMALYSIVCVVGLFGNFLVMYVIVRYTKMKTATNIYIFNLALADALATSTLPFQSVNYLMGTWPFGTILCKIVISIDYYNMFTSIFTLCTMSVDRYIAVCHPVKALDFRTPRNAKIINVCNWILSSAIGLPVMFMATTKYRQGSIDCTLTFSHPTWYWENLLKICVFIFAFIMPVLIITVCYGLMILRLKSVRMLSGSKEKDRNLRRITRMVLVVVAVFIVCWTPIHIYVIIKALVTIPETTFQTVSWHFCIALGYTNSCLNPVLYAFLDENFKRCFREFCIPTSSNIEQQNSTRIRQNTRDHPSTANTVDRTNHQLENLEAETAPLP

Row | Structure (SMILES) | inhibition at 1 µM (Table 2, Examples 11-161) [%] | inhibition at 1 µM (Table 1, aldehydes) [%]
1 | COC(=O)C1(CSCc2ccccc2)N=CN(Cc2ccccc2)C1CC1CCC(C(c2cccc(F)c2)N(C)C)CC1 (stereo not drawn) [Example 86, 1-benzyl-4-benzylsulfanylmethyl-5-{4-[dimethylamino-(3-fluorophenyl)-methyl]-cyclohexylmethyl}-4,5-dihydro-1H-imidazole-4-carboxylic acid methyl ester] | 71 | –
2 | COC(=O)C1(CC(C)C)N=CN(CCc2ccccc2)C1CC1CCC(C(c2ccc(Cl)cc2)N(C)C)CC1 (stereo not drawn) [Example 43, 5-{4-[(4-chlorophenyl)-dimethylaminomethyl]-cyclohexylmethy}-4-isobutyl-1-phenethyl-4,5-dihydro-1H-imidazole-4-carboxylic acid methyl ester] | 97 | –
3 | CCCCN1C=NC(CCSC)(C(=O)OC)C1CC1CCC(C(c2cccc(F)c2)N(C)C)CC1 (stereo not drawn) [Example 123, 1-butyl-5-{4-[dimethylamino-(3-fluorophenyl)-methyl]-cyclohexylmethyl}-4-(2-methylsulfanylethyl)-4,5-dihydro-1H-imidazole-4-carboxylic acid methyl ester] | 98 | –
4 | CCCCN1C=NC(CCC)(C(=O)OC)C1CC1CCC(C(c2ccc(F)cc2)N(C)C)CC1 (stereo not drawn) [Example 125, 1-butyl-5-{4-[dimethylamino-(4-fluorophenyl)-methyl]-cyclohexylmethyl}-4-propyl-4,5-dihydro-1H-imidazole-4-carboxylic acid methyl ester] | 91 | –
5 | COC(=O)C1(CCSC)N=CN(Cc2ccccc2)C1CC1CCC(C(c2cccc(F)c2)N(C)C)CC1 (stereo not drawn) [Example 139, 1-benzyl-5-{4-[dimethylamino-(3-fluorophenyl)-methyl]-cyclohexylmethyl}-4-(2-methylsulfanyl-ethyl)-4,5-dihydro-1H-imidazole-4-carboxylic acid methyl ester] | 100 | –
6 | CCCCN1C=NC(CCC)(C(=O)OC)C1CC1CCC(C(CCc2ccccc2)N(C)C)CC1 (stereo not drawn) [Example 127, 1-butyl-5-[4-(1-dimethylamino-3-phenylpropyl)-cyclohexylmethyl]-4-propyl-4,5-dihydro-1H-imidazole-4-carboxylic acid methyl ester] | 74 | –
7 | CCCCC1(C(=O)OC)N=CN(CCc2ccccc2)C1CC1CCC(C(c2ccc(Cl)cc2)N(C)C)CC1 (stereo not drawn) [Example 45, 4-butyl-5-{4-[(4-chlorophenyl)-dimethylaminomethyl]-cyclohexylmethyl}-1-phenethyl-4,5-dihydro-1H-imidazole-4-carboxylic acid methyl ester] | 97 | –
8 | COC(=O)C1(CSC)N=CN(C2CCCCC2)C1CC1CCC(C(c2ccc(F)cc2)N(C)C)CC1 (stereo not drawn) [Example 153, 1-cyclohexyl-5-{4-[dimethylamino-(4-fluorophenyl)-methyl]-cyclohexylmethyl}-4-methylsulfanylmethyl-4,5-dihydro-1H-imidazole-4-carboxylic acid methyl ester] | 93 | –
9 | CCCCN1C=NC(CSCc2ccccc2)(C(=O)OC)C1C1CCC(C(c2ccc(Cl)cc2)N(C)C)CC1 (stereo not drawn) [Example 69, 4-benzylsulfanylmethyl-1-butyl-5-{4-[(4-chlorophenyl)-dimethylaminomethyl]-cyclohexyl}-4,5-dihydro-1H-imidazole-4-carboxylic acid methyl ester] | 95 | –
10 | COC(=O)C1(CSC)N=CN(Cc2ccccc2)C1C1CCC(C(c2cccc(F)c2)N(C)C)CC1 (stereo not drawn) [Example 96, 1-benzyl-5-{4-[dimethylamino-(3-fluorophenyl)-methyl]-cyclohexyl}-4-methylsulfanylmethyl-4,5-dihydro-1H-imidazole-4-carboxylic acid methyl ester] | 97 | –
11 | CCCC1(C(=O)OC)N=CN(CCc2ccccc2)C1CC1CCC(C(CCc2ccccc2)N(C)C)CC1 (stereo not drawn) [Example 135, 5-[4-(1-dimethylamino-3-phenylpropyl)-cyclohexylmethyl]-1-phenethyl-4-propyl-4,5-dihydro-1H-imidazole-4-carboxylic acid methyl ester] | 85 | –
12 | COC(=O)C1(Cc2ccc(Cl)cc2)N=CN(Cc2ccccc2)C1C1CCC(C(c2ccc(Cl)cc2)N(C)C)CC1 (stereo not drawn) [Example 49, 1-benzyl-4-(4-chlorobenzyl)-5-{4-[(4-chlorophenyl)-dimethylaminomethyl]-cyclohexyl}-4,5-dihydro-1H-imidazole-4-carboxylic acid methyl ester] | 84 | –
13 | COC(=O)C1(Cc2ccc(Cl)cc2)N=CN(C2CCCCC2)C1C1CCC(C(c2cccc(F)c2)N(C)C)CC1 (stereo not drawn) [Example 12, 4-(4-chlorobenzyl)-1-cyclohexyl-5-{4-[dimethylamino-(3-fluorophenyl)-methyl]-cyclohexyl}-4,5-dihydro-1H-imidazole-4-carboxylic acid methyl ester] | 73 | –
14 | CCCCN1C=NC(CCC(=O)OC)(C(=O)OC)C1C1CCC(C(c2ccc(Cl)cc2)N(C)C)CC1 (stereo not drawn) [Example 68, 1-butyl-5-{4-[(4-chlorophenyl)-dimethylaminomethyl]-cyclohexyl}-4-(2-methoxycarbonylethyl)-4,5-dihydro-1H-imidazole-4-carboxylic acid methyl ester] | 90 | –
15 | COC(=O)C1(CSCc2ccccc2)N=CN(CCc2ccccc2)C1CC1CCC(C(c2cccc(F)c2)N(C)C)CC1 (stereo not drawn) [Example 82, 4-benzylsulfanylmethyl-5-{4-[dimethylamino-(3-fluorophenyl)-methyl]-cyclohexylmethyl}-1-phenethyl-4,5-dihydro-1H-imidazole-4-carboxylic acid methyl ester] | 95 | –
16 | COC(=O)C1(CCSC)N=CN(CCc2ccccc2)C1CC1CCC(C(c2ccc(F)cc2)N(C)C)CC1 (stereo not drawn) [Example 133, 5-{4-[dimethylamino-(4-fluorophenyl)-methyl]-cyclohexylmethyl}-4-(2-methylsulfanylethyl)-1-phenethyl-4,5-dihydro-1H-imidazole-4-carboxylic acid methyl ester] | 84 | –
17 | CCCCN1C=NC(CSC)(C(=O)OC)C1CC1CCC(C(c2ccc(F)cc2)N(C)C)CC1 (stereo not drawn) [Example 77, 1-butyl-5-{4-[dimethylamino-(4-fluorophenyl)-methyl]-cyclohexylmethyl}-4-methylsulfanylmethyl-4,5-dihydro-1H-imidazole-4-carboxylic acid methyl ester] | 88 | –
18 | CCCN1C=NC(CSCc2ccccc2)(C(=O)OC)C1C1CCC(C(c2ccc(Cl)cc2)N(C)C)CC1 (stereo not drawn) [Example 60, 4-benzylsulfanylmethyl-5-{4-[(4-chlorophenyl)-dimethylaminomethyl]-cyclohexyl}-1-propyl-4,5-dihydro-1H-imidazole-4-carboxylic acid methyl ester] | 95 | –
19 | COC(=O)C1(CSCc2ccccc2)N=CN(CCc2ccccc2)C1C1CCC(C(c2cccc(F)c2)N(C)C)CC1 (stereo not drawn) [Example 92, 4-benzylsulfanylmethyl-5-{4-[dimethylamino-(3-fluorophenyl)-methyl]-cyclohexyl}-1-phenethyl-4,5-dihydro-1H-imidazole-4-carboxylic acid methyl ester] | 95 | –
20 | COC(=O)C1(Cc2ccc(Cl)cc2)N=CN(Cc2ccccc2)C1CC1CCC(C(c2ccc(Cl)cc2)N(C)C)CC1 (stereo not drawn) [Example 113, 1-benzyl-4-(4-chlorobenzyl)-5-{4-[(4-chlorophenyl)-dimethylaminomethyl]-cyclohexylmethyl}-4,5-dihydro-1H-imidazole-4-carboxylic acid methyl ester] | 92 | –
21 | CCCN1C=NC(CC(C)C)(C(=O)OC)C1C1CCC(C(c2cccc(F)c2)N(C)C)CC1 (stereo not drawn) [Example 21, 5-{4-[dimethylamino-(3-fluorophenyl)-methyl]-cyclohexyl}-4-isobutyl-1-propyl-4,5-dihydro-1H-imidazole-4-carboxylic acid methyl ester] | 83 | –
22 | COC(=O)CCC1(C(=O)OC)N=CN(CCc2ccccc2)C1CC1CCC(C(c2cccc(F)c2)N(C)C)CC1 (stereo not drawn) [Example 80, 5-{4-[dimethylamino-(3-fluorophenyl)-methyl]-cyclohexylmethyl}-4-(2-methoxycarbonylethyl)-1-phenethyl-4,5-dihydro-1H-imidazole-4-carboxylic acid methyl ester] | 90 | –
23 | CCCCC1(C(=O)OC)N=CN(C2CCCCC2)C1CC1CCC(C(c2ccc(Cl)cc2)N(C)C)CC1 (stereo not drawn) [Example 19, 4-butyl-5-{4-[(4-chlorophenyl)-dimethylaminomethyl]-cyclohexylmethyl}-1-cyclohexyl-4,5-dihydro-1H-imidazole-4-carboxylic acid methyl ester] | 96 | –
24 | COC(=O)C1(CC(C)C)N=CN(Cc2ccccc2)C1C1CCC(C(c2ccc(Cl)cc2)N(C)C)CC1 (stereo not drawn) [Example 48, 1-benzyl-5-{4-[(4-chlorophenyl)-dimethylaminomethyl]-cyclohexyl}-4-isobutyl-4,5-dihydro-1H-imidazole-4-carboxylic acid methyl ester] | 93 | –
25 | COC(=O)C1(C)N=CN(Cc2ccccc2)C1CC1CCC(C(c2ccc(F)cc2)N(C)C)CC1 (stereo not drawn) [Example 143, 1-benzyl-5-{4-[dimethylamino-(4-fluorophenyl)-methyl]-cyclohexylmethyl}-4-methyl-4,5-dihydro-1H-imidazole-4-carboxylic acid methyl ester] | 100 | –
26 | CCCN1C=NC(CCSC)(C(=O)OC)C1CC1CCC(C(c2cccc(F)c2)N(C)C)CC1 (stereo not drawn) [Example 112, 5-{4-[dimethylamino-(3-fluorophenyl)-methyl]-cyclohexylmethyl}-4-(2-methylsulfanyl-ethyl)-1-propyl-4,5-dihydro-1H-imidazole-4-carboxylic acid methyl ester] | 95 | –
27 | CN(C)C(c1ccc(Cl)cc1)C1CCC(CC=O)CC1 (stereo not drawn) [Example 10c, {4-[(4-Chlorophenyl)-dimethylaminomethyl]-cyclohexyl}-acetaldehyde] | – | 50
